Results reported in PMC4732562 (2015).

System: 3',3'-cGAMP riboswitch (Gs1761 aptamer, A2G/U72C/C73U) (RNA, riboswitch) GGUACACGACAAUACUAAACCAUCCGCGAGGAUGGGGCGGAAAGCCUAAGGGUCUCCCUGAGACAGCCGGGCUGCCGAAAUAUC
Assay: ITC
Conditions: 35 °C; one set of sites; buffer in supplement

Row | SMILES | Kd [nM]
1 | Nc1nc2c(ncn2[C@@H]2O[C@@H]3COP(=O)(O)O[C@H]4[C@@H](O)[C@H](n5cnc6c(=O)[nH]c(N)nc65)O[C@@H]4COP(=O)(O)O[C@H]3[C@H]2O)c(=O)[nH]1 | 930
2 | Nc1nc2c(ncn2[C@@H]2O[C@@H]3COP(=O)(O)O[C@H]4[C@@H](O)[C@H](n5cnc6c(N)ncnc65)O[C@@H]4COP(=O)(O)O[C@H]3[C@H]2O)c(=O)[nH]1 | 70
